Data reported in patent US11331327B2, “Antibacterial use of halogenated salicylanilides” (UNION therapeutics A/S, priority 2014, dated 2022).
Like-named read-outs stand apart in the source and are kept apart here.

Tested on: S. aureus clinical isolates and S. aureus ATCC 29213
Test: MIC assay according to CLSI criteria, Example 2, S. aureus strains
Assay type: cell-based, Staphylococcus aureus
Details: Staphylococcus aureus, read-out: MIC
Procedure: Strains were conserved in Luria Bertani (LB) Broth (S. aureus) or Brain Heart Infusion (BHI) (S. pyogenes) supplemented with glycerol 15% (v/v) at −80° C., and reactivated by isolation on LB (S. aureus) or BHI (S. pyogenes) agar plates. Strains were cultivated in Mueller Hinton (MH) Broth-cation adjusted (S. aureus) or BHI (S. pyogenes). All strains were cultivated aerobically (microaerobically for S. pyogenes strains) at 37° C.
Bacterial cultures were stopped in their exponential growth phase and plates were inoculated with the approximate concentration of 5×10^5 cells per well. Plates were incubated at 37° C. for 18 hours (S. aureus) or 24 hours (S. pyogenes).

Measured: MIC

C/C(=C\C(=O)OCCCCCCCCC(=O)O)C[C@@H]1OC[C@H](C[C@@H]2O[C@H]2[C@@H](C)[C@H](C)O)[C@@H](O)[C@H]1O [Mupirocin]
> 16 µg/mL: ATCC 29213 / MRSA, strain MRSA 08
1 µg/mL: ATCC29213, strain E5-1046296
0.25 µg/mL: ATCC29213, strain 9-1862936 | ATCC29213, strain 9-2642158 | ATCC29213, strain 9-2955245 | ATCC29213, strain 9-26422166 | ATCC29213, strain 000040C | ATCC29213, strain 000041C | ATCC29213, strain 114660U | ATCC29213, strain 115242C | ATCC29213, strain 115263C | ATCC29213, strain 115273C | ATCC29213, strain 115295C | ATCC29213, strain 115303C | ATCC29213, strain 115427C | ATCC29213, strain 115445C | ATCC29213, strain 115628T | ATCC29213, strain 115691T | ATCC29213, strain 115740E | ATCC29213, strain 115810E | ATCC29213, strain E5-1030440 | ATCC29213, strain E5-1030469 | ATCC29213, strain E5-1030482 | ATCC29213, strain E5-1033076 (first line, r202) | ATCC29213, strain E5-1033076 (second line, r203) | ATCC29213, strain E5-1033088 | ATCC29213, strain E5-1033091 | ATCC29213, strain E5-1035284 | ATCC29213, strain E5-1035775 | ATCC29213, strain E5-1037971 | ATCC29213, strain E5-1038279 | ATCC29213, strain E5-1038294 | ATCC29213, strain E5-1039684 | ATCC29213, strain E5-1039697 | ATCC29213, strain E5-1041980 | ATCC29213, strain E5-1041987 | ATCC29213, strain E5-1043668 | ATCC29213, strain E5-1045179 | ATCC29213, strain E5-1046019 | ATCC29213, strain E5-1046020 | ATCC29213, strain E5-1046039 | ATCC29213, strain E5-1046074 | ATCC29213, strain E5-1046297 | ATCC29213, strain E5-1046298 | ATCC29213, strain E5-1046723 | ATCC29213, strain E5-1047585 | ATCC29213, strain E5-1048204 | ATCC29213, strain E5-1048428 | ATCC29213, strain E5-1048654 | ATCC29213, strain K000864 | ATCC29213, strain K115688 | ATCC29213, strain K115689 | ATCC 29213 / MRSA, strain MRSA 01 | ATCC 29213 / MRSA, strain MRSA 02 | ATCC 29213 / MRSA, strain MRSA 03 | ATCC 29213 / MRSA, strain MRSA 04 | ATCC 29213 / MRSA, strain MRSA 06 | ATCC 29213 / MRSA, strain MRSA 07 | ATCC 29213 / MRSA, strain MRSA 09 | ATCC 29213 / MRSA, strain MRSA 10 | ATCC 29213 / MRSA, strain MRSA 13
0.125 µg/mL: ATCC29213, strain 115370U | ATCC29213, strain 115690C | ATCC29213, strain ATCC 29213 | ATCC29213, strain EEFIC 01 | ATCC29213, strain EEFIC 02 | ATCC29213, strain K000772 | ATCC 29213 / MRSA, strain MRSA 05 | ATCC 29213 / MRSA, strain MRSA 12 | ATCC 29213 / MRSA, strain MRSA 14
0.5 µg/mL: ATCC29213, strain 9-2625962 | ATCC29213, strain 000274T | ATCC29213, strain 115015T | ATCC29213, strain 115268C | ATCC29213, strain 115561C | ATCC29213, strain 115584D | ATCC29213, strain 115903T | ATCC29213, strain 116122T | ATCC29213, strain E5-1029252 | ATCC29213, strain E5-1029558 | ATCC29213, strain E5-1030472 | ATCC29213, strain E5-1035277 | ATCC29213, strain E5-1035779 | ATCC29213, strain E5-1037958 | ATCC29213, strain E5-1038286 | ATCC29213, strain E5-1041977 | ATCC29213, strain E5-1041979 | ATCC29213, strain E5-1043184 | ATCC29213, strain E5-1046070 | ATCC29213, strain E5-1046085 | ATCC29213, strain E5-1046096 | ATCC29213, strain E5-1047606 | ATCC29213, strain E5-1047924 | ATCC29213, strain E5-1048670 | ATCC29213, strain K000796 | ATCC29213, strain K000863 | ATCC29213, strain K000866 | ATCC29213, strain K115498 | ATCC29213, strain R000019 | ATCC29213, strain R000020 | ATCC29213, strain R000024 | ATCC29213, strain U115579 | ATCC 29213 / MRSA, strain MRSA 11
